The source of these data is paper PMC9973354 (mBio, 2022).

The target in one assay is T1, FpvB R648C (Pseudomonas aeruginosa, UniProt A0A0H2ZFZ5, R648C).
T1 sequence (A0A0H2ZFZ5 23-802 R648C): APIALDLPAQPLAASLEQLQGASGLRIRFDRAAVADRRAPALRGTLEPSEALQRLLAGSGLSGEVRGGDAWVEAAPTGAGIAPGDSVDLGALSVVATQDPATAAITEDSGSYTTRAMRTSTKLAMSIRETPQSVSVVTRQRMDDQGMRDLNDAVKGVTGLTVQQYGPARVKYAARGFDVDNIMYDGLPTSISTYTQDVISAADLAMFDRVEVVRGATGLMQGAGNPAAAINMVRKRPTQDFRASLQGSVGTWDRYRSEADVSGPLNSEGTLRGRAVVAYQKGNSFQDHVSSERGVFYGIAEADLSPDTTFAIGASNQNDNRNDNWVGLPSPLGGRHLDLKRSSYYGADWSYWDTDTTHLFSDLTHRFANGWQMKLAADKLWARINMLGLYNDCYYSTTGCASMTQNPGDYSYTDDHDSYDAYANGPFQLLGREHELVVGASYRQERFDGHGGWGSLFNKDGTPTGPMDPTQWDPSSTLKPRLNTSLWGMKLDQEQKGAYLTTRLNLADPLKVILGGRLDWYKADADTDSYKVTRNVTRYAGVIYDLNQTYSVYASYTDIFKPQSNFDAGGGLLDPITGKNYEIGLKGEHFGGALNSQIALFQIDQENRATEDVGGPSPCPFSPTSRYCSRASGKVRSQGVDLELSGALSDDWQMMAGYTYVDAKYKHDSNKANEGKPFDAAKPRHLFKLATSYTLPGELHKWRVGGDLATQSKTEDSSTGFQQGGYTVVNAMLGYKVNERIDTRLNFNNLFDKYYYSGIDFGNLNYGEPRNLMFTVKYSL
The experiment in a line: Whole-cell fluorescence quenching, FpvB R648C in quadruple mutant. Format: binding. The conditions noted are these: FpvB R648C in quadruple mutant, two-site model. As for the experimental part:
Quenching assays with the two xenosiderophores were repeated for the quadruple TBDT mutant expressing WT FpvB, FpvB R191A R648C, or W347V R648C.
Cells were cultured overnight in LB with carbenicillin (200 μg/mL) at 37°C with shaking at 200 rpm. Cells were subcultured (1:200 dilution) in 10:90 plus 2% arabinose for 4 h without carbenicillin at 37°C with shaking at 200 rpm. Cells were harvested by centrifugation for 5 min and 6,000 × g and resuspended in sterile 1× phosphate-buffered saline (PBS) (pH 7.4); 1× PBS was made from a 10× stock (80 g NaCl, 2 g KCl, 26.8 g Na2 HPO4-7H2O, 2.4 g KH2PO4 in 1 L of deionized H2O) with 10 μM Alexa Fluor 594 C5 maleimide for microscopy or fluorescein-5-maleimide for fluorescence quenching and recovery assays and incubated in the dark at room temperature for 30 min on a shaking incubator at 37°C (200 rpm). Excess dye was quenched with 1 mM dithiothreitol (DTT) (Sigma) to stop the reaction. Cells were washed 3× with PBS. For fluorescence recovery assays, cells were incubated with 1× PBS plus 0.4% glucose at 37°C with shaking at 200 rpm. Glucose was prepared as a 20% stock (wt/vol) in 1× PBS and filter sterilized. Cells were spun down and washed 3× with 1× PBS and resuspended in 1× PBS for quenching assays and 1× PBS plus 0.4% glucose for fluorescence recovery assays.
For fluorescence quenching and recovery assays, cells were diluted to an OD600 of 0.1 for both types of assays, and 148 μL was added into wells of a 96-well black plate (Corning). Fluorescence was recorded for 5 min at 1-min intervals at 37°C (BioTek Neo; excitation, 494 nm; emission, 520 nm). After 5 min, 2 μL of each serial dilution for ferrioxamine-Fe^3+, ferrichrome-Fe^3+, and pyoverdine-Fe^3+ or DMSO for vehicle controls was added to each well. Fluorescence was recorded immediately for quenching assays and for 1 h at 1-min intervals for fluorescence recovery assays. Background fluorescence was subtracted from all fluorescence readings and 1-F/F0 was used to calculate the degree of quenching, where F0 is the initial fluorescence. Kd was calculated using GraphPad Prism using a one-site specific binding model or a two-site model. For fluorescence recovery assays, background was subtracted from all fluorescence readings and F/F0 expressed as a percent of control was plotted versus time.

Assay [1] has as its system PA14 ΔfpvA ΔfpvB ΔfiuA ΔfoxA pHERD20T-fpvB R191A. The experiment in a line: Growth of quadruple mutant expressing FpvB R191A. Format: cell-based, Pseudomonas aeruginosa. The conditions noted are these: 10:90 + 2% arabinose. As for the experimental part:
Site-directed mutagenesis was used to confirm the docking predictions and to define the molecular determinants for ligand uptake through FpvB (Fig. 4C). We generated 17 single amino acid substitutions in FpvB and expressed each of them in trans in the quadruple ΔfpvA ΔfpvB ΔfiuA ΔfoxA mutant. Their ability to complement growth of the mutant in the presence of ferrichrome and ferrioxamine B and to restore TS susceptibility was assessed. […] The mutant transporters were tagged with a C-terminal FLAG tag to evaluate expression levels. FLAG-tagged FpvB mutants had WT levels of expression except for Y216T and W347V, which were expressed at 140% and 25% of WT, respectively.
The ΔfpvA ΔfpvB ΔfiuA ΔfoxA mutant was complemented with WT fpvA, fpvB, fiuA, and foxA in trans as controls (Fig. 4E).
MIC assays were conducted as previously described ([13], [14]). Overnight cultures were grown in LB from a glycerol stock at 37°C with shaking (200 rpm). Subcultures in 10:90 (1:100 dilution) were cultured for 4 h. Cells were adjusted to an optical density at 600 nm (OD600) of 0.1/500 in 10:90. All compounds were serially diluted 2-fold in dimethyl sulfoxide (DMSO) or H2O at 75× the final concentration. […] The next day, the OD600 was determined with a plate reader (Thermo Scientific) and normalized to percent of growth of the vehicle control after subtracting the OD600 from blank media.

Several values for one entry are separate records, joined by “and”; a condition that tells them apart may be missing. Identical values can stand only once. Like-named read-outs stand apart in the source and are kept apart here.

Consider `CC(=O)N(O)CCCCCNC(=O)CCC(=O)N(O)CCCCCNC(=O)CCC(=O)N(O)CCCCCN` [ferrioxamine B], for which the Kd on FpvB R648C (read-out: Kd1 (converted)) was 0.178 µM and 0.17 µM; at FpvB R648C (read-out: Kd2 (converted)), 660 µM and 600 µM. In addition, the “growth in the presence of siderophore” value in assay [1] was “prevented growth”.
